Measurements as given in ChEMBL document CHEMBL1139131, “Lead optimization of 5,6-diarylpyridines as CB1 receptor inverse agonists” (Bioorg Med Chem Lett, 2007).
pIC50: −log10 of the molar value.

Key:
Cannabinoid receptor 2 = Cannabinoid receptor 2 (Homo sapiens, UniProt P34972)
Description: Binding affinity at CB2 receptor

in vivo [1] = settings: Sprague-Dawley, rat
Description: Half life in Sprague-Dawley rat

in vivo [2] = settings: Sprague-Dawley, rat; remark: listed apart in the source
Description: Bioavailability in Sprague-Dawley rat

in vivo [3] = settings: Sprague-Dawley, rat, brain, iv
Description: Ratio of drug level in brain to plasma in iv dosed Sprague-Dawley rat after 0.25 hr

in vivo [4] = settings: Sprague-Dawley, rat, brain, iv; remark: listed apart in the source
Description: Ratio of drug level in brain to plasma in iv dosed Sprague-Dawley rat after 4 hrs

in vivo [5] = settings: Sprague-Dawley, rat; remark: listed apart in the source
Description: Volume of distribution in Sprague-Dawley rat

in vivo [6] = settings: Sprague-Dawley, rat; remark: listed apart in the source
Description: Plasma clearance in Sprague-Dawley rat

Sequence of Cannabinoid receptor 2 (P34972 whole entry): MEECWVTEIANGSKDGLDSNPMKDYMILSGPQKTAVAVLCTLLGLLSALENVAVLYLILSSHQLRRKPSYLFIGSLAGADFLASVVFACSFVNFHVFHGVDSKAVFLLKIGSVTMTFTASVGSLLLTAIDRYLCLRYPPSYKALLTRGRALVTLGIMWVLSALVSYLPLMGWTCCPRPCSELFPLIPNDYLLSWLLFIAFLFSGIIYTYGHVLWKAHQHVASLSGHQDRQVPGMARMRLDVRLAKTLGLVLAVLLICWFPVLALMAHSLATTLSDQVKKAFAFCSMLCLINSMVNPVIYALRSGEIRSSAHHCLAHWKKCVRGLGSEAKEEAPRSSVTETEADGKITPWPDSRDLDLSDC

Row | Compound | pIC50 (Cannabinoid receptor 2) | also measured
1 | N#Cc1cc(-c2ccc(Cl)cc2)c(-c2ccc(Cl)cc2Cl)nc1Oc1ccc(F)cc1 | 5.36 | –
2 | N#Cc1cc(-c2ccc(Cl)cc2)c(-c2ccc(Cl)cc2Cl)nc1Oc1cccc(Cl)c1 | 5.39 | –
3 | COc1ccc(Oc2nc(-c3ccc(Cl)cc3Cl)c(-c3ccc(Cl)cc3)cc2C#N)cc1 | 5.42 | –
4 | N#Cc1cc(-c2ccc(Cl)cc2)c(-c2ccc(Cl)cc2Cl)nc1Oc1ccc(F)c(F)c1 | 5.39 | half-life (in vivo [1]): 5.6 h; bioavailability (in vivo [2]): 66%; Kp at […] (in vivo [3]): 0.1; Kp at 4 h (in vivo [4]): 0.61; Vd (in vivo [5]): 1.5 L/kg; clearance (in vivo [6]): 3.5 mL/min/kg
5 | N#Cc1cc(-c2ccc(Cl)cc2)c(-c2ccc(Cl)cc2Cl)nc1Oc1cc(F)cc(F)c1 | 6.49 | –
6 | N#Cc1cc(-c2ccc(Cl)cc2)c(-c2ccccc2Cl)nc1Oc1ccc(F)c(F)c1 | 5.24 | –
7 | N#Cc1cc(-c2ccc(Cl)cc2)c(-c2ccc(Cl)cc2Cl)nc1Sc1ccc(F)cc1 | 5.28 | –
8 | N#Cc1cc(-c2ccc(Cl)cc2)c(-c2ccc(Cl)cc2Cl)nc1Nc1ccc(F)cc1 | 5.55 | –
9 | CC(C)NC(=O)c1cc(-c2ccc(Cl)cc2)c(-c2ccc(Cl)cc2Cl)nc1Oc1ccc(F)c(F)c1 | 5.80 | –
10 | CN(C)NC(=O)c1cc(-c2ccc(Cl)cc2)c(-c2ccc(Cl)cc2Cl)nc1Oc1ccc(F)c(F)c1 | 5.74 | half-life (in vivo [1]): 4.1 h; bioavailability (in vivo [2]): 26%; Kp at […] (in vivo [3]): 1.2; Kp at 4 h (in vivo [4]): 3; Vd (in vivo [5]): 6.7 L/kg; clearance (in vivo [6]): 24 mL/min/kg
11 | CC(C)(C)C(=O)Nc1nc(-c2ccc(Cl)cc2Cl)c(-c2ccc(Cl)cc2)cc1C#N | 5.77 | –
12 | N#Cc1cc(-c2ccc(Cl)cc2)c(-c2ccc(Cl)cc2Cl)nc1OCCNC(=O)C1CCC1 | 6.35 | –
13 | N#Cc1cc(-c2ccc(Cl)cc2)c(-c2ccc(Cl)cc2Cl)nc1OC1CCOC1 (configuration not stated) | 6.14 | –
14 | N#Cc1cc(-c2ccc(Cl)cc2)c(-c2ccc(Cl)cc2Cl)nc1Oc1cccc(F)c1 | 5.64 | –
15 | N#Cc1cc(-c2ccc(Cl)cc2)c(-c2ccc(Cl)cc2Cl)nc1Oc1ccc(Cl)cc1 | 5.38 | –
16 | CC(C)CNc1nc(-c2ccc(Cl)cc2Cl)c(-c2ccc(Cl)cc2)cc1C#N | 5.74 | –
17 | N#Cc1cc(-c2ccc(Cl)cc2)c(-c2ccc(Cl)cc2Cl)nc1Oc1cc(Cl)cc(Cl)c1 | 5.25 | –
18 | NC(=O)c1cc(-c2ccc(Cl)cc2)c(-c2ccc(Cl)cc2Cl)nc1Oc1ccc(F)c(F)c1 | 5.31 | –
19 | N#Cc1cc(-c2ccc(Cl)cc2)c(-c2ccc(Cl)cc2Cl)nc1-n1nnc2ccccc21 | 6.33 | –
20 | N#Cc1cc(-c2ccc(Cl)cc2)c(-c2ccc(Cl)cc2Cl)nc1OCC1CCOC1 (configuration not stated) | 6.37 | –
21 | N#Cc1cc(-c2ccc(Cl)cc2)c(-c2ccc(Cl)cc2Cl)nc1NC(=O)c1ccc(F)c(F)c1 | 6.50 | –
22 | CNN(C)C(=O)c1cc(-c2ccc(Cl)cc2)c(-c2ccc(Cl)cc2Cl)nc1Oc1ccc(F)c(F)c1 | 6.19 | –

More lines, main results first:

Row | pIC50 (Cannabinoid receptor 2) | Compound | also measured
23 | 5.96 | CC(C)(C)C(=O)N1CCN(c2nc(-c3ccccc3Cl)c(-c3ccc(Cl)cc3)cc2C#N)CC1 | –
24 | 6.15 | CC(C)N1CCN(c2nc(-c3ccccc3Cl)c(-c3ccc(Cl)cc3)cc2C#N)C(=O)C1=O | –
25 | 5.68 | CC(C)(C)C#Cc1nc(-c2ccccc2Cl)c(-c2ccc(Cl)cc2)cc1C#N | –
26 | 5.74 | CC(C)(O)C#Cc1nc(-c2ccccc2Cl)c(-c2ccc(Cl)cc2)cc1C#N | –
27 | 5.96 | CCC(N)(C#Cc1nc(-c2ccccc2Cl)c(-c2ccc(Cl)cc2)cc1C#N)CC | –
28 | 5.43 | N#Cc1cc(-c2ccc(Cl)cc2)c(-c2ccccc2Cl)nc1-c1cccnc1 | –
29 | 5.48 | Cn1cc(-c2nc(-c3ccccc3Cl)c(-c3ccc(Cl)cc3)cc2C#N)cn1 | –
30 | 6.51 | N#Cc1cc(-c2ccc(Cl)cc2)c(-c2ccc(Cl)cc2Cl)nc1-n1ccnc1 | –
31 | 5.40 | N#Cc1cc(-c2ccc(Cl)cc2)c(-c2ccc(Cl)cc2Cl)nc1N1CCCCC1 | –
32 | 6.07 | CC(C)Oc1nc(-c2ccc(Cl)cc2Cl)c(-c2ccc(Cl)cc2)cc1C#N | –
33 | 5.37 | N#Cc1cc(-c2ccc(Cl)cc2)c(-c2ccccc2Cl)nc1-c1cncnc1 | –
34 | 5.85 | N#Cc1cc(-c2ccc(Cl)cc2)c(-c2ccccc2Cl)nc1N1CCN(S(=O)(=O)c2cc(F)cc(F)c2)CC1 | –
35 | 5.59 | CC(C)(C)N1CCN(c2nc(-c3ccccc3Cl)c(-c3ccc(Cl)cc3)cc2C#N)CC1 | –
